Experimental findings from US11191743B2, “Modulators of zinc activated cation channel” (Dignity Health, priority 2016, dated 2021) are described below.

Assay [1] deals with T1, ZACN (Homo sapiens, UniProt Q401N2).
T1 sequence (Q401N2 26-412): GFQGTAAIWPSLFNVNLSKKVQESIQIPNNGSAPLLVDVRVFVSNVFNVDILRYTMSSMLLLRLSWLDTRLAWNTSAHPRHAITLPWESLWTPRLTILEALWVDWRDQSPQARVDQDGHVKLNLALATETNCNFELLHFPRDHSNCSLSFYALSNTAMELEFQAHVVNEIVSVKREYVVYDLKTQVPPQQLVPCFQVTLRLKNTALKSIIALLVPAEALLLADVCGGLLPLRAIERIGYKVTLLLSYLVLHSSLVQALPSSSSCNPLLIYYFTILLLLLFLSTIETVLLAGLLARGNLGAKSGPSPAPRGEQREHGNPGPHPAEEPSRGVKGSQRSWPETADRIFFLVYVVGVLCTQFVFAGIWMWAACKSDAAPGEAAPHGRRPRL
Kind of assay: Two-electrode voltage-clamp, ZACN expressed in Xenopus laevis oocytes: inhibition or modulation of spontaneous, zinc-activated and suramin-activated current. Type of assay: cell-based. More on the design: host or cells: Xenopus laevis oocytes injected with cRNA (pGEMHE vector, T7 transcript). The conditions noted are these: for mode of antagonism: IC50 at 500 μM vs 2 mM Zn2+. The procedure: Stage IV oocytes from Xenopus laevis were injected with Ing of ZACN human mRNA. Prior to recording, oocytes were incubated in the oocyte Ringer's Solution (OR2) with 10 μM D-tubocurarine to inhibit spontaneous channel opening. The oocytes were incubated at 14° C. for three to five days following mRNA injection before recording with two-electrode voltage-clamp. […] Current levels in response to drug applications were normalized to the response to the same concentration of zinc in the absence of the drug. Peak current inhibitions were fitted to the Hill equation to derive IC50 values.
(§1) The cDNA encoding wild type, human ZACN was purchased from OpenBiosystems, and cloned into the pGEMHE vector in the T7 orientation. For cRNA synthesis, cDNA templates were PCR amplified using primers that cover the M13 forward and reverse regions and high fidelity Phusion DNA polymerase (New England Biolab, Ipswich, Mass., USA). PCR products were then purified and served as templates for cRNA synthesis. cRNAs were transcribed by T7 RNA polymerase (Promega, Madison, Wis., USA) using standard in vitro transcription protocols. After digestion of the DNA template by RNase-free DNase I, cRNAs were purified and resuspended in diethyl pyrocarbonate (DEPC)-treated water. cRNA integrity was examined on a 1% agarose gel, and cRNA concentration was determined by optical density measurements at 260 nm using an Eppendorf Biophotometer.
(§2) Oocytes were harvested from female Xenopus laevis (Xenopus I, Ann Arbor, Mich., USA), using the protocol “Xenopus Care and Use” approved by the Institutional Animal Care and Use Committee of the St. Joseph's Hospital and Medical Center. Stage VI oocytes were selected and incubated at 16° C. before injection. Micropipettes for injection were pulled from borosilicate glass (Drummond Scientific, Broomall, Pa., USA) on a Sutter P87 horizontal puller, and the tips were cut with forceps to ≈40 μm in diameter. cRNAs encoding ZACN was drawn up into the micropipette and injected into oocytes with a Nanoject micro-injection system (Drummond Scientific) in a total volume of ˜60 nl and total cRNA of ˜20 ng for each oocyte.
(§3) ValveLink 16 computer-controlled perfusion system was used to switch solutions between the OR2 and a test solution. The perfusion chamber was grounded through an agar salt bridge to avoid alterations in junction potential between the Ag/AgCl grounding electrode and solution when solution/drug changes occurred. Oocytes were voltage-clamped at −70 mV to measure agonist-induced currents using an AxoClamp 900A amplifier (Axon Instruments, Foster City, Calif., USA). The current signal was low-pass filtered at 20 Hz with the built-in 4-pole low-pass Bessel filter and digitized at 100 Hz with a Digidata1440a and pClamp 10 software (Molecular Devices).
(§4) For each oocyte, concentration-inhibition curves for drug-induced inhibition of zinc-activated current responses or concentration response curves for agonist-induced current of the ZACN were fit to the Hill equation using least squares methods (Prism 6.0, GraphPad Software, Inc., San Diego, Calif., USA) to derive IC50 or EC50 values (the concentration required for inducing a half maximal current), Hill coefficients (the slope factor), and maximum current levels in absolute terms. Current levels in each oocyte were normalized to the maximum current in the absence of the inhibitor, allowing normalized data to be averaged across multiple oocytes and to be fit again to the Hill equation. All data are presented as mean±SEM (standard error).

In assay [2] the target is T1, ZACN. The assay is described as follows: Two-electrode voltage-clamp, ZACN expressed in Xenopus laevis oocytes: agonist-induced current. Type of assay: cell-based. More on the design: host or cells: Xenopus laevis oocytes injected with cRNA (pGEMHE vector, T7 transcript).
Source text: as §1, §2
as §3, with “Two to 5 days after injection, oocytes expressing ZACN were placed in a home-made, small volume chamber and a 16-channel manifold, continuously perfused with oocyte Ringer's solution (OR2), which consisted of (in mM) 92.5 NaCl, 2.5 KCl, 1 CaCl2, 1 MgCl2 and 5 HEPES, pH 7.5. ValveLink” for “ValveLink”
as §4

“Also recorded” adds a separate entry of the source. Like-named read-outs stand apart in the source and are kept apart here.

Turning to `COc1ccc(C(CN(C)C)C2(O)CCCCC2)cc1` (stereo not drawn) [venlafaxine], in assay [1], the “antagonist activity on human ZACN” value is listed as “acted as antagonists” and the mode of antagonism entry is on record as “non-competitive”.
On to `CNCCCN1c2ccccc2CCc2ccccc21` [desipramine], for which, in assay [1], the “IC50s relative to clinical concentrations” value was “clinically relevant concentrations”, the “antagonist activity on human ZACN” value is given as “acted as antagonists”, the “relative potency / IC50 for the Zn2+-induced current among seven tested antidepressants” value (“relative potency / IC50” for short) was “lower IC50 values” and the mode of antagonism result was “non-competitive”. Besides, the “relative potency / IC50” value in assay [1] (listed as desipranine) is “most potent antagonists”.
With `O=C(Nc1cc(C(=O)Nc2ccc(S(=O)(=O)O)cc2)cc(C(=O)Nc2ccc(S(=O)(=O)O)cc2)c1)Nc1cc(C(=O)Nc2ccc(S(=O)(=O)O)cc2)cc(C(=O)Nc2ccc(S(=O)(=O)O)cc2)c1` [NF-110], the “agonist activity on human ZACN (words)” value in assay [2] was “agonist”.
On to pentosan polysulfate, for which the “agonist activity on human ZACN (words)” value is recorded as “agonist of the human ZACN with high efficacy” in assay [2] and “agonist” in assay [2] (listed as pentosane polysulfate).
Turning to `CN1CCN2c3ccccc3Cc3ccccc3C2C1` (stereo not drawn) [mianserin], in assay [1], the “antagonist activity on human ZACN” value was “acted as antagonists” and the mode of antagonism result is “non-competitive”.
Turning to `COc1cc(-c2ccc(/N=N/c3ccc4c(S(=O)(=O)O)cc(S(=O)(=O)O)c(N)c4c3O)c(OC)c2)ccc1/N=N/c1ccc2c(S(=O)(=O)O)cc(S(=O)(=O)O)c(N)c2c1O` [Chicago sky blue], the “agonist activity on human ZACN (words)” value in assay [2] is “activate the human ZACN”.
Consider `Cc1cc2nc3ccc(N(C)C)cc3nc2cc1N.Cl` [neutral red], for which, in assay [1], the “antagonist activity on human ZACN” value is given as “antagonists”; the “high sensitivity component of antagonism, concentration range” value (shortened to “high sensitivity component of antagonism”) was “nano-molar range”; the “low sensitivity form of antagonism, concentration range” value (“low sensitivity form of antagonism” below) is on record as “micromolar range”.
Regarding `CN(C)CCC=C1c2ccccc2COc2ccccc21` [doxepin], in assay [1], the “antagonist activity on human ZACN” value is recorded as “acted as antagonists” and the mode of antagonism result is recorded as “non-competitive”.
In the case of `CNCC[C@@H](Oc1ccccc1C)c1ccccc1` [tomoxetine], in assay [1], the “IC50s relative to clinical concentrations” value is “clinically relevant concentrations”, the “antagonist activity on human ZACN” value is “acted as antagonists”, the “relative potency / IC50” value is on record as “lower IC50 values” and the mode of antagonism entry was “non-competitive”. Also, in assay [1] (listed as tomoxentine), the “relative potency / IC50” value was “most potent antagonists”.
In the case of `Nc1ncnc2c1ncn2[C@@H]1O[C@H](COP(=O)(O)OP(=O)(O)OP(=O)(O)O)[C@@H](O)[C@H]1O` [ATP], in assay [1], the “antagonist activity on human ZACN” value is “inhibitor”, the “effect on spontaneous current / spontaneous opening” value was “inhibits”, the “effect on suramin-activated current” value is on record as “positive allosteric modulator; also recorded: potentiates” and the “effect on zinc-activated current” value was “antagonist; also recorded: inhibits”.
On to `O=C(Nc1cccc(C(=O)Nc2cc(C(=O)Nc3ccc(S(=O)(=O)O)c4cc(S(=O)(=O)O)cc(S(=O)(=O)O)c34)ccc2F)c1)Nc1cccc(C(=O)Nc2cc(C(=O)Nc3ccc(S(=O)(=O)O)c4cc(S(=O)(=O)O)cc(S(=O)(=O)O)c34)ccc2F)c1` [NF-157], for which the results for the “agonist activity on human ZACN (words)” value in assay [2] and in assay [2] (listed as NF157) were “efficacious agonist” and “agonists”, respectively.
Consider `O=C(Nc1ccc(C(=O)Nc2ccc(C(=O)Nc3ccc(S(=O)(=O)O)c4cc(S(=O)(=O)O)cc(S(=O)(=O)O)c34)cc2)cc1)Nc1ccc(C(=O)Nc2ccc(C(=O)Nc3ccc(S(=O)(=O)O)c4cc(S(=O)(=O)O)cc(S(=O)(=O)O)c34)cc2)cc1` [NF-279], for which the “agonist activity on human ZACN (words)” value in assay [2] is listed as “agonists; also recorded: efficacious agonist”.
Still for that read-out and setting: the same measure for `O=S1(=O)OC(c2cc(Br)c(O)c(Br)c2)(c2cc(Br)c(O)c(Br)c2)c2ccccc21` [bromophenol blue]: “activate the human ZACN”.
On to heparin, for which the “agonist activity on human ZACN (words)” value in assay [2] is given as “agonist”.
Turning to `CCOc1ccccc1OC(c1ccccc1)C1CNCCO1` (stereo not drawn) [reboxetine], in assay [1], the “antagonist activity on human ZACN” value is given as “acted as antagonists” and the mode of antagonism entry is on record as “non-competitive”.
Turning to `CN(C)c1ccc2nc3ccc(=[N+](C)C)cc-3sc2c1` [methylene blue], in assay [1], the “antagonist activity on human ZACN” value was “antagonists”; the “high sensitivity component of antagonism” value is given as “nano-molar range”; the “low sensitivity form of antagonism” value is “micromolar range”.
On to `O=C(Nc1cccc(C(=O)Nc2ccc(S(=O)(=O)O)c3cc(S(=O)(=O)O)cc(S(=O)(=O)O)c23)c1)Nc1cccc(C(=O)Nc2ccc(S(=O)(=O)O)c3cc(S(=O)(=O)O)cc(S(=O)(=O)O)c23)c1` [NF-023], for which the “agonist activity on human ZACN (words)” value in assay [2] is on record as “agonist”.
`Cc1cc2nc3ccc(N(C)C)cc3[s+]c2cc1N.[Cl-]` [toluidine blue]: in assay [1], the “antagonist activity on human ZACN” value was “antagonists”; the “high sensitivity component of antagonism” value is recorded as “nano-molar range”; the “low sensitivity form of antagonism” value is “micromolar range”.
Consider `Cc1cc(-c2ccc(/N=N/c3ccc4c(S(=O)(=O)O)cc(S(=O)(=O)O)c(N)c4c3O)c(C)c2)ccc1/N=N/c1ccc2c(S(=O)(=O)O)cc(S(=O)(=O)O)c(N)c2c1O` [Evans blue], for which the “agonist activity on human ZACN (words)” value in assay [2] is on record as “agonists; also recorded: efficacious agonist”.
As for `Cc1cc(-c2ccc(/N=N/c3c(S(=O)(=O)O)cc4cc(S(=O)(=O)O)cc(N)c4c3O)c(C)c2)ccc1/N=N/c1c(S(=O)(=O)O)cc2cc(S(=O)(=O)O)cc(N)c2c1O` [Trypan blue], the “agonist activity on human ZACN (words)” value in assay [2] is “agonists; also recorded: efficacious agonist”.
Take `Cc1ccc(C(=O)Nc2ccc(S(=O)(=O)O)c3cc(S(=O)(=O)O)cc(S(=O)(=O)O)c23)cc1NC(=O)c1cccc(NC(=O)Nc2cccc(C(=O)Nc3cc(C(=O)Nc4ccc(S(=O)(=O)O)c5cc(S(=O)(=O)O)cc(S(=O)(=O)O)c45)ccc3C)c2)c1` [suramin]: in assay [2], the “agonist activity on human ZACN (words)” value is “agonists; also recorded: efficacious agonist”.
For the molecule `CNCCC(Oc1ccc(C(F)(F)F)cc1)c1ccccc1` (stereo not drawn) [fluoxetine], in assay [1], the “antagonist activity on human ZACN” value is “acted as antagonists” and the mode of antagonism entry was “non-competitive”.
As to `O=C(Nc1cc(C(=O)Nc2ccc(S(=O)(=O)O)cc2S(=O)(=O)O)cc(C(=O)Nc2ccc(S(=O)(=O)O)cc2S(=O)(=O)O)c1)Nc1cc(C(=O)Nc2ccc(S(=O)(=O)O)cc2S(=O)(=O)O)cc(C(=O)Nc2ccc(S(=O)(=O)O)cc2S(=O)(=O)O)c1` [NF-449], in assay [2], the “agonist activity on human ZACN (words)” value is given as “agonist” and the “concentration at which the small high sensitivity component is saturated” value worked out at 1 µM.
